Patent US8236937B2, “Methods and compositions for the detection and isolation of ligands” (InDanio Bioscience Inc., priority 2005, dated 2012)

How the values were obtained:
[1] = test system: fish glucocorticoid receptor (GR); conditions: agonist; cited from earlier work
[2] = biological target: T1, GAL4-DHR96 (Drosophila hormone receptor 96) fusion protein (Drosophila melanogaster, UniProt Q24143); assay: Ligand trap GFP reporter screen in transgenic Drosophila embryos (GAL4-DHR96, UAS-GFP); assay type: in vivo; conditions: 10^−5 molar vs control media, FIG. 7 panel A
T1 construct: expressed in transfected cells; host or cells: transgenic Drosophila embryos carrying GAL4-DHR96 and a UAS-GFP reporter
T1 sequence (Q24143 483-723 limits assumed): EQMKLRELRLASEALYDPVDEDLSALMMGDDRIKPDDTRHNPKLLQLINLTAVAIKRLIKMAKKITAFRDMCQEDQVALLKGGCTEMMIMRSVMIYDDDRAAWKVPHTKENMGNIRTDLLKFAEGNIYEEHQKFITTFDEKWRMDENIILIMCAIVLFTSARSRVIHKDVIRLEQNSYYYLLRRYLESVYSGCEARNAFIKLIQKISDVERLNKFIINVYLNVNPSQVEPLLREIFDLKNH
Text: CITCO is a component of a small molecule library used to screen for novel DHR96 ligands.

GFP reporter activation / ligand activity at DHR96 [2]	SMILES	Transcriptional activity of fish GR in the presence of ligand [1]
–	C[C@]12CCC(=O)C=C1CC[C@@H]1[C@@H]2[C@@H](O)C[C@@]2(C)[C@H]1CC[C@]2(O)C(=O)CO [cortisol]	able to induce transcriptional activity
first example of a DHR96-specific ligand	Clc1ccc(-c2nc3sccn3c2/C=N/OCc2ccc(Cl)c(Cl)c2)cc1 [CITCO]	–
